# Patent US4751215A, “Process for increasing the sexual activity of birds and useful domestic mammals and for preparing spermatozoa suitable to their propagation” (INNOFINANCE Altalanos Innovacios Penzintezet, priority 1985, dated 1988)
# Tests used:
# Type in all cases: in vivo
# [1] = system: blood plasma testosterone level; experiment: Effect of various doses on blood plasma testosterone level of domestic cock (Table 1)
# From the text: In Table 1, the relation of the doses of the compounds of general formula (I) to the blood plasma testosterone level of the treated animals is illustrated in case of domestic cocks.
# male turkey = experiment: Effect of interval between three intramuscular injections on sperm production of male turkey (Table 2); details: three i.m. injections, 1 μg/kg
# From the text: In Table 2, the influence on the sperm production of the interval kept between the consecutive treatments is shown on male turkeys.
# male turkeys [2] = experiment: Permanent increase in sperm production of male turkeys bred on a large scale (Example 1, FIG. 4); details: 0.5 μg/kg i.m. every 2 days, 3 times
# Experimental: (§1) 0.5 μg/kg of D-Phe^6 -GnRH analogue was intramuscularly administered to sexually mature male turkeys every 2 days, altogether 3 times. On the 20th day following treatment, the sperm production reached an increase of 44% and remained at a higher level, as compared to the control, for about 1 month (FIG. 4).
# (§2) One month and half after the first treatment, the same animals were similarly treated with 0.5 μg/kg of (Asp-α-diethylamide)^6,desGly^10 -GnRH ethylamide analogue every 2 days, altogether 3 times.
# testosterone level = experiment: Testosterone level of treated male turkeys (Table 3); details: Treated (n = 15)
# Experimental: as §1, §2
# The rise of the LH level of the blood was followed by an increase in the testosterone level (Table 3).
# male turkeys [3] = experiment: Effect of gonadoliberin analogues on the sperm production of male turkeys (Table 5)
# From the text: In a further experiment, the sperm production of male turkeys was raised by administering the following four compounds: […]
# bull = experiment: Enhancement of the sexual activity of a bull; details: 300 μg each, 3 times
# Experimental: A 2-year old bull of 1010 kg weight, of breeding condition and correspondingly having a good muscular system, good leg construction and a definitely male sexual character was set to breeding in 1985. On October 16 and 23 as well as on Nov. 1, 1985 test coverings were carried out on a rutting female cattle and on a phantom bull. […] Diagnosis stated by the veterinarian specialist: importentia coeundi. The bull was treated on November 29 as well as on Dec. 2 and 4, 1986 altogether 3 times with 300 μg each of D-[…] -GnRH analogue. On Dec. […] 7, 1986. On Jan. 21, 1986 the bull sprung onto a cow being after rutting. The sexual potency of the animal was unobjectionable even after 5 weeks following the treatment.
smiles,measurement,setting,value
"CC(C)C[C@H](NC(=O)[C@@H](Cc1ccccc1)NC(=O)[C@H](Cc1ccc(O)cc1)NC(=O)[C@H](CO)NC(=O)[C@H](Cc1c[nH]c2ccccc12)NC(=O)[C@H](Cc1c[nH]cn1)NC(=O)[C@@H]1CCC(=O)N1)C(=O)N[C@@H](CCCNC(=N)N)C(=O)N1CCC[C@H]1C(=O)NCC(N)=O [Compound ""A"", D-Phe^6 -GnRH]",Testosterone level of the blood plasma,"[1]; dose 0.01 μg/kg, after 0 minutes",1.7 (0.7) ng/ml
same,Testosterone level of the blood plasma,"[1]; dose 0.01 μg/kg, after 30 minutes",1.6 (1.3) ng/ml
same,Testosterone level of the blood plasma,"[1]; dose 0.01 μg/kg, after 60 minutes",1.5 (1.0) ng/ml
same,Testosterone level of the blood plasma,"[1]; dose 0.01 μg/kg, after 120 minutes",1.4 (0.6) ng/ml
same,Testosterone level of the blood plasma,"[1]; dose 0.05 μg/kg, after 0 minutes",1.4 (0.7) ng/ml
same,Testosterone level of the blood plasma,"[1]; dose 0.05 μg/kg, after 30 minutes",1.7 (1.2) ng/ml
same,Testosterone level of the blood plasma,"[1]; dose 0.05 μg/kg, after 60 minutes",1.5 (1.2) ng/ml
same,Testosterone level of the blood plasma,"[1]; dose 0.05 μg/kg, after 120 minutes",1.9 (0.8) ng/ml
same,Testosterone level of the blood plasma,"[1]; dose 0.1 μg/kg, after 0 minutes",1.0 (0.2) ng/ml
same,Testosterone level of the blood plasma,"[1]; dose 0.1 μg/kg, after 30 minutes",3.4 (1.9) ng/ml
same,Testosterone level of the blood plasma,"[1]; dose 0.1 μg/kg, after 60 minutes",2.7 (1.1) ng/ml
same,Testosterone level of the blood plasma,"[1]; dose 0.1 μg/kg, after 120 minutes",2.0 (0.8) ng/ml
same,Testosterone level of the blood plasma,"[1]; dose 0.3 μg/kg, after 0 minutes",2.1 (0.7) ng/ml
same,Testosterone level of the blood plasma,"[1]; dose 0.3 μg/kg, after 30 minutes",3.9 (0.6) ng/ml
same,Testosterone level of the blood plasma,"[1]; dose 0.3 μg/kg, after 60 minutes",4.2 (1.2) ng/ml
same,Testosterone level of the blood plasma,"[1]; dose 0.3 μg/kg, after 120 minutes",2.6 (0.5) ng/ml
same,Testosterone level of the blood plasma,"[1]; dose 0.5 μg/kg, after 0 minutes",2.5 (1.0) ng/ml
same,Testosterone level of the blood plasma,"[1]; dose 0.5 μg/kg, after 30 minutes",6.5 (0.5) ng/ml
same,Testosterone level of the blood plasma,"[1]; dose 0.5 μg/kg, after 60 minutes",5.3 (1.2) ng/ml
same,Testosterone level of the blood plasma,"[1]; dose 0.5 μg/kg, after 120 minutes",3.9 (1.5) ng/ml
same,Testosterone level of the blood plasma,"[1]; dose 1.0 μg/kg, after 0 minutes",1.5 (0.8) ng/ml
same,Testosterone level of the blood plasma,"[1]; dose 1.0 μg/kg, after 30 minutes",7.2 (3.5) ng/ml
same,Testosterone level of the blood plasma,"[1]; dose 1.0 μg/kg, after 60 minutes",7.1 (3.6) ng/ml
same,Testosterone level of the blood plasma,"[1]; dose 1.0 μg/kg, after 120 minutes",3.7 (1.2) ng/ml
same,Testosterone level of the blood plasma,"[1]; dose 3.0 μg/kg, after 0 minutes",1.9 (0.3) ng/ml
same,Testosterone level of the blood plasma,"[1]; dose 3.0 μg/kg, after 30 minutes",6.2 (2.4) ng/ml
same,Testosterone level of the blood plasma,"[1]; dose 3.0 μg/kg, after 60 minutes",5.2 (1.7) ng/ml
same,Testosterone level of the blood plasma,"[1]; dose 3.0 μg/kg, after 120 minutes",3.0 (1.1) ng/ml
same,Testosterone level of the blood plasma,"[1]; dose 5.0 μg/kg, after 0 minutes",2.1 (1.2) ng/ml
same,Testosterone level of the blood plasma,"[1]; dose 5.0 μg/kg, after 30 minutes",3.6 (2.4) ng/ml
same,Testosterone level of the blood plasma,"[1]; dose 5.0 μg/kg, after 60 minutes",2.7 (0.6) ng/ml
same,Testosterone level of the blood plasma,"[1]; dose 5.0 μg/kg, after 120 minutes",1.7 (0.9) ng/ml
same,Sperm volume,"male turkey; interval between treatments 24 hour, on day 0",0.18 (0.05) ml
same,Sperm volume,"male turkey; interval between treatments 24 hour, on the 20th day",0.21 (0.10) ml
same,Sperm volume,"male turkey; interval between treatments 48 hour, on day 0",0.19 (0.07) ml
same,Sperm volume,"male turkey; interval between treatments 48 hour, on the 20th day",0.35 (0.12) ml
same,Sperm volume,"male turkey; interval between treatments 72 hour, on day 0",0.16 (0.08) ml
same,Sperm volume,"male turkey; interval between treatments 72 hour, on the 20th day",0.25 (0.11) ml
same,Sperm volume,"male turkey; interval between treatments 144 hour, on day 0",0.21 (0.07) ml
same,Sperm volume,"male turkey; interval between treatments 144 hour, on the 20th day",0.24 (0.09) ml
same,time sperm production remained at a higher level as compared to the control,male turkeys [2],about 1 month
same,increase of sperm production,male turkeys [2]; on the 20th day following treatment,44%
same,Testosterone,testosterone level; sampling May 2,2.43 ± 1.22 ng/mL
same,Testosterone,testosterone level; sampling May 23,4.06 ± 1.62 ng/mL
same,Sperm production,male turkeys [3]; after 30 days,0.34 ml/animal
same,Sperm production,male turkeys [3]; after 60 days,0.39 ml/animal
same,Sperm production,male turkeys [3]; at the beginning of the experiment,0.27 ml/animal
same,sexual potency of the animal,bull; 5 weeks following the treatment,unobjectionable
same,covering behaviour after treatment,"bull; bull with impotentia coeundi, Dec. 6, 1985",covered two times a rutting cow
